Literature values as cited in patent US11452751B2, “Medication dispensing system” (priority 2015, dated 2022).

Key:
[1] = system: cannabinoid receptors
[2] = system: estrogen receptor-positive and estrogen receptor-negative breast cancer cell lines; conditions: inducing apoptosis in a concentration-dependent manner
[3] = system: nontumorigenic mammary cells
[4] = system: prostate cell line, PC-3; conditions: Ruiz et al. 1999
[5] = molecular target: T1, androgen receptor in the prostate gland (Homo sapiens, UniProt P10275)
T1 construct: host or cells: prostate gland
T1 sequence (P10275 1-920): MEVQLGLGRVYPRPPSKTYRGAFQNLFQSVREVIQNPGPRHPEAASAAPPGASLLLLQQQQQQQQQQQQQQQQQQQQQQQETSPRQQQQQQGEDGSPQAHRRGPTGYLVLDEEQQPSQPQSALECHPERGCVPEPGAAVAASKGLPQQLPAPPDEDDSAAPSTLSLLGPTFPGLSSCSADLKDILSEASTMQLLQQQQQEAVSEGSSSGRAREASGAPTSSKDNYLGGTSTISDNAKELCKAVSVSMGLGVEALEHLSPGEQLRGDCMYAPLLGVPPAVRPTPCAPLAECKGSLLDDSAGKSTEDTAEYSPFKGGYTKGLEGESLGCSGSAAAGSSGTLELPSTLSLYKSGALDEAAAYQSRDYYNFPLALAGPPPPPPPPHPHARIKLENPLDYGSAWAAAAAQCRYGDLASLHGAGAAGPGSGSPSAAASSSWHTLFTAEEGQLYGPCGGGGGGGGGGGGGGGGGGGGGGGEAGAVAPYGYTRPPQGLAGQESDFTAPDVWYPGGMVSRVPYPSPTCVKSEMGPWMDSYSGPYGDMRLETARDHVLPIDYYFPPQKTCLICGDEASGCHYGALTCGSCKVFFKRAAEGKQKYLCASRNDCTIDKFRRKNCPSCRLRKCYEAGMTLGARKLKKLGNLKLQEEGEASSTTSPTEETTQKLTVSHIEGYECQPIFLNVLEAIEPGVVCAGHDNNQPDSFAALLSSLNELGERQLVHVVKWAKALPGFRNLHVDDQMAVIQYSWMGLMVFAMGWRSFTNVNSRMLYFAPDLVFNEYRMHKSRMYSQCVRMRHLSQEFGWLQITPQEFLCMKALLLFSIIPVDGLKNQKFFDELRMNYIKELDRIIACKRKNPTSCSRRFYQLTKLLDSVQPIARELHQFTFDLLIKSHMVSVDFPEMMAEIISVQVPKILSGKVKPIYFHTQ

[6] = molecular target: CB1 receptor (Homo sapiens, UniProt P21554)
Sequence of CB1 receptor (P21554 whole entry): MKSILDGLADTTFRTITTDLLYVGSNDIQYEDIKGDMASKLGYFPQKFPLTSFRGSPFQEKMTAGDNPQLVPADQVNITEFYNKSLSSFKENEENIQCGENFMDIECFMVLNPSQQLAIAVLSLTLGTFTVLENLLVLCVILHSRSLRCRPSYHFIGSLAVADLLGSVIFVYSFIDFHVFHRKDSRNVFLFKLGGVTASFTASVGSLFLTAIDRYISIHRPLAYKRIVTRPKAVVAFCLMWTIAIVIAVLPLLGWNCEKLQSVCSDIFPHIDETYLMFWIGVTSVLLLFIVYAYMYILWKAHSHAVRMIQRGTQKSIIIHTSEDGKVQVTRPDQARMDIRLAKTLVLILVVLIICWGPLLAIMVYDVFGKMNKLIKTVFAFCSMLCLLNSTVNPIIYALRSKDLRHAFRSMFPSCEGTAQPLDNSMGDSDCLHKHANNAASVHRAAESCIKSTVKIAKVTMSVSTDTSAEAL

[7] = not given; remark: listed apart in the source

C=C(C)[C@@H]1CCC(C)=C[C@H]1c1c(O)cc(CCCCC)cc1O [CBD, Cannabidiol]
affinity to cannabinoid receptors [1]: low affinity
survival of breast cancer cell lines [2]: inhibited the survival
effect on nontumorigenic mammary cells [3]: little effect

CCCCCc1cc(O)c2c(c1)OC(C)(C)[C@@H]1CCC(C)=C[C@@H]21 [THC, Tetrahydrocannabinol]
pain sensitivity (cold-pressor test after administration, dronabinol oral capsules 10 mg or 20 mg): decreased pain sensitivity
duration of effects (compared with smoked marijuana): lasted longer than smoked marijuana
time after administration at which pain reduction effects were felt (on the average, cold-pressor test): 180 min
apoptosis [4]: causes apoptosis
specific binding of dihydroxytestosterone to the androgen receptor [5]: inhibits specific binding

CCCc1cc(O)c2c(c1)OC(C)(C)[C@@H]1CCC(C)=C[C@@H]21 [THCV, Tetrahydrocannabivarin]
mode of action at CB1 receptor [6]: CB1 receptor antagonist

vitamin E
reduction in breast cancer incidence ([7]; pre-menopausal women with a family history of breast cancer, highest quantity of vitamin E consumed): 43%
risk reduction of breast cancer ([7]; women without a family history of breast cancer): 16%
